Patent publication US5089471A, “Peptidyl beta-aminoacyl aminodiol carbamates as anti-hypertensive agents” (G. D. Searle & Co., priority 1987, dated 1992)
Blank lines part the entries; values can stand above or below the compound they belong to. Square brackets hold non-standard residues; d marks the D form. Peptide text beside a SMILES is read from it. * marks the point of attachment. Sta = CC(C)C[C@H](N)[C@@H](O)CC(=O)O; Isovaleryl = CC(C)CC(=O)*

Key:
[1] = biological target: T1, human renin (Homo sapiens, UniProt P00797); experiment: in vitro human renin inhibition test (angiotensin I determined by radioimmunoassay); format: biochemical; conditions: for relative activity of epimers as human renin inhibitor (in words): epimer of Example 9 versus epimer of Example 10
T1 construct: purchased National Institute for Biological Standards, London
T1 sequence (P00797 67-406): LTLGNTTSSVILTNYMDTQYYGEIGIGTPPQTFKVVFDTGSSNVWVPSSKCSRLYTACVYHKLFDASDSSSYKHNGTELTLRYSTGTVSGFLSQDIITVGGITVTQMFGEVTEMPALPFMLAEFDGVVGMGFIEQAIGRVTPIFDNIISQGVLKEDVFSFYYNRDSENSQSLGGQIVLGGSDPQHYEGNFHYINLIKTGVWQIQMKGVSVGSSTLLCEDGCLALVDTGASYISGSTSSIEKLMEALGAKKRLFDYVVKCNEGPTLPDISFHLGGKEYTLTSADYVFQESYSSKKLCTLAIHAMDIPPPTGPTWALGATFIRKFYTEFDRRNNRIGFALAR
Procedure: Compounds of Formula I were evaluated as inhibitors of human renin in an in vitro assay, as follows: This human renin inhibition test has been previously described in detail [Papaioannou, et al., Clinical and Experimental Hypertension, A7(9), 1243-1257 (1985)]. Human renin was obtained from the National Institute for Biological Standards, London. In a total volume of 0.25 mL 100 mM Tris-acetate buffer at pH 7.4, 25×10^-6 Goldblatt units of renin, 0.05 mL of plasma from human volunteers taking oral contraceptives, 6.0 mM sodium EDTA, 2.4 mM phenylmethyl sulfonyl fluoride, 1.5 mM 8-hydroxyquinoline, 0.4 mg/mL BSA, and 0.024 mg/mL neomycin sulfate were incubated for two hours at 37° C. in the presence or absence of renin inhibitors. The produced angiotensin I was determined by radioimmunoassay (New England Nuclear kit). Compounds of Formula I to be assayed were solubilized in either ethyl alcohol or DMSO and diluted with 100 mM Tris-acetate buffer at pH 7.4 to the appropriate concentration. The final concentration of organic solvent in the reaction mixture was less than 1%. Control incubations at 37° C. were used to correct for effects of organic solvent on renin activity.

[2] = tested on: hog renin; conditions: after the injection of hog renin into nephrectomized rats; Gross et al, Science, 175, 656 (1971); cited from earlier work
[3] = tested on: renin; conditions: Umezawa et al, J. Antibiot. 23:259-262 (1970); cited from earlier work
[4] = tested on: acid proteases; conditions: cited from earlier work
[5] = tested on: pepsin; conditions: Umezawa et al, J. Antibiot. 23:259-262 (1970); cited from earlier work
[6] = tested on: cathepsin D; conditions: Umezawa et al, J. Antibiot. 23:259-262 (1970); cited from earlier work
[7] = in vitro, pH 7.4, 37° C., two hours, human plasma

IC50 [1, 7]: 210 nM
SMILES: CC(C)C[C@H](O)[C@H](O)[C@H](CC1CCCCC1)NC(=O)[C@H](C)CNC(=O)[C@H](Cc1ccccc1)OC(=O)N1CCOCC1 [Example 9, O-(N-morpholinocarbonyl)-3-L-phenyllactyl-α-(R)-methyl-β-alaninamide of (2 S, 3R, 4S)-2-amino-1-cyclohexyl-3,4-dihydroxy-6-methylheptane]
relative activity of epimers as human renin inhibitor (in words) [1]: much more active as a human renin inhibitor than the other epimer of Example 10

inhibiting renin (in words) ([1]; in vitro): capable of inhibiting renin in vitro
IC50 [1, 7]: 280 nM
SMILES: CC(C)C[C@H](O)[C@H](O)[C@H](CC1CCCCC1)NC(=O)C(C)CNC(=O)[C@H](Cc1ccccc1)OC(=O)N1CCOCC1 (stereo partly drawn) [Example 8, O-(N-morpholinocarbonyl)-3-L-phenyllactyl-D,L-α-methyl-β-alaninamide of (2S, 3R, 4S)-2-amino-1-cyclohexyl-3,4-dihydroxy-6-methylheptane]

SMILES: CC(C)CC(=O)N[C@H](C(=O)N[C@H](C(=O)N[C@@H](CC(C)C)[C@@H](O)CC(=O)N[C@@H](C)C(=O)N[C@@H](CC(C)C)[C@@H](O)CC(=O)O)C(C)C)C(C)C [pepstatin] (Isovaleryl-VV[Sta]A[Sta]-OH)
reduction of blood pressure [2]: reduce blood pressure in vivo
inhibition of renin (in words) [3]: inhibitor of aspartyl proteases such as pepsin, cathepsin D and renin
inhibition of acid proteases in addition to renin (in words) [4]: inhibiting acid proteases in addition to renin
inhibition of pepsin (in words) [5]: inhibitor of aspartyl proteases such as pepsin
inhibition of cathepsin D (in words) [6]: inhibitor of aspartyl proteases such as pepsin, cathepsin D

inhibition at 1 µM ([1]; @ 10^-6 M, in vitro, pH 7.4, 37° C., two hours, human plasma): 8%
relative activity of epimers as human renin inhibitor (in words) [1]: less active epimer
SMILES: CC(C)C[C@H](O)[C@H](O)[C@H](CC1CCCCC1)NC(=O)[C@@H](C)CNC(=O)[C@H](Cc1ccccc1)OC(=O)N1CCOCC1 [Example 10, O-(N-morpholinocarbonyl)-3-L-phenyllactyl-α-(S)-methyl-β-alaninamide of (2S, 3R, 4S)-2-amino-1-cyclohexyl-3,4-dihydroxy-6-methylheptane]
